According to US20250120989A1, “BRIDGED TRICYCLIC CARBAMOYLPYRIDONE COMPOUNDS AND USES THEREOF” (priority 2023, published 2025):
pEC50: −log10 of the molar value. Converted amounts (≈) assume the structure as drawn.

Key:
HIV-1 (IIIB) = assay: microbe, parasite or virus in culture; format: cell-based; conditions: Human immunodeficiency virus 1, MT4, 120 h; HIV-1 (IIIB) replication in MT-4 cells, 5 days, Cell Titer Glo; read-out: MT4 EC50
in vitro = conditions: human, uninfected MT-4 cells
physchem = conditions: FaSSIF, 23 °C, thermodynamic from solid

Row | Structure (SMILES) | pEC50 (HIV-1 (IIIB)) | CC50 at 5 days (in vitro) [µM] | solubility thermodynamic at 24 h (physchem) [µg/mL]
1 | COC1=NO[C@@]2(CC[C@H](C)N3C[C@H]2n2cc(C(=O)NCc4ccc(F)cc4F)c(=O)c(OCOC(=O)O[C@@H](C)[C@H](C)OP(=O)(O)O)c2C3=O)C1 [Compound 29, (((3′S,5S,7′R)-10′-((2,4-difluorobenzyl)carbamoyl)-3-methoxy-3′-methyl-1′,11′-dioxo-1′,4′,5′,11′-tetrahydro-3′H,4H,7′H-spiro[isoxazole-5,6′-[2,7]methanopyrido[1,2-a][1,4]diazonin]-12′-yl)oxy)methyl ((2S,3S)-3-(phosphonooxy)butan-2-yl) carbonate] | 8.31 | 29 | 4880 (≈ 6.7 mM)
2 | CC1=NO[C@@]2(CC[C@H](C)N3C[C@H]2n2cc(C(=O)NCc4ccc(F)cc4F)c(=O)c(OCOC(=O)O[C@H](C)C[C@@H](C)OP(=O)(O)O)c2C3=O)C1 [Compound 31, (((3′S,5S,7′R)-10′-((2,4-difluorobenzyl)carbamoyl)-3,3′-dimethyl-1′,11′-dioxo-1′,4′,5′,11′-tetrahydro-3′H,4H,7′H-spiro[isoxazole-5,6′-[2,7]methanopyrido[1,2-a][1,4]diazonin]-12′-yl)oxy)methyl ((2R,4R)-4-(phosphonooxy)pentan-2-yl) carbonate] | 8.46 | 12.9 | 4620 (≈ 6.37 mM)
3 | COC1=NO[C@@]2(CC[C@H](C)N3C[C@H]2n2cc(C(=O)NCc4ccc(F)cc4F)c(=O)c(OCOC(=O)OCC(C)(C)COP(=O)(O)O)c2C3=O)C1 [Compound 32, (((3′S,5S,7′R)-10′-((2,4-difluorobenzyl)carbamoyl)-3-methoxy-3′-methyl-1′,11′-dioxo-1′,4′,5′,11′-tetrahydro-3′H,4H,7′H-spiro[isoxazole-5,6′-[2,7]methanopyrido[1,2-a][1,4]diazonin]-12′-yl)oxy)methyl (2,2-dimethyl-3-(phosphonooxy)propyl) carbonate] | 8.53 | 17.7 | 4800 (≈ 6.47 mM)
4 | CC1=NO[C@@]2(CC[C@H](C)N3C[C@H]2n2cc(C(=O)NCc4ccc(F)cc4F)c(=O)c(OCOC(=O)OCC4(COP(=O)(O)O)CC4)c2C3=O)C1 [Compound 33, (((3′S,5S,7′R)-10′-((2,4-difluorobenzyl)carbamoyl)-3,3′-dimethyl-1′,11′-dioxo-1′,4′,5′,11′-tetrahydro-3′H,4H,7′H-spiro[isoxazole-5,6′-[2,7]methanopyrido[1,2-a][1,4]diazonin]-12′-yl)oxy)methyl ((1-((phosphonooxy)methyl)cyclopropyl)methyl) carbonate] | 8.66 | 12.3 | 5680 (≈ 7.84 mM)
5 | CC1=NO[C@@]2(CC[C@H](C)N3C[C@H]2n2cc(C(=O)NCc4ccc(F)cc4F)c(=O)c(OCOC(=O)OCC(C)(C)N(C)C(=O)OCOP(=O)(O)O)c2C3=O)C1 [Compound 36, (phosphonooxy)methyl (1-((((((3′S,5S,7′R)-10′-((2,4-difluorobenzyl)carbamoyl)-3,3′-dimethyl-1′,11′-dioxo-1′,4′,5′,11′-tetrahydro-3′H,4H,7′H-spiro[isoxazole-5,6′-[2,7]methanopyrido[1,2-a][1,4]diazonin]-12′-yl)oxy)methoxy)carbonyl)oxy)-2-methylpropan-2-yl)(methyl)carbamate] | 8.91 | 9.33 | 5060 (≈ 6.32 mM)
6 | CC1=NO[C@@]2(CC[C@H](C)N3C[C@H]2n2cc(C(=O)NCc4ccc(F)cc4F)c(=O)c(OCOC(=O)OCC(C)(C)CN(CC(=O)O)C(=O)OCOP(=O)(O)O)c2C3=O)C1 [Compound 37, N-(3-((((((3′S,5S,7′R)-10′-((2,4-difluorobenzyl)carbamoyl)-3,3′-dimethyl-1′,11′-dioxo-1′,4′,5′,11′-tetrahydro-3′H,4H,7′H-spiro[isoxazole-5,6′-[2,7]methanopyrido[1,2-a][1,4]diazonin]-12′-yl)oxy)methoxy)carbonyl)oxy)-2,2-dimethylpropyl)-N-(((phosphonooxy)methoxy)carbonyl)glycine] | 8.83 | 11.1 | 4980 (≈ 5.81 mM)
7 | COC1=NO[C@@]2(CC[C@H](C)N3C[C@H]2n2cc(C(=O)NCc4ccc(F)cc4F)c(=O)c(OC(=O)OC[C@H](C)OP(=O)(O)O)c2C3=O)C1 [Compound 38, (3′S,5S,7′R)-10′-((2,4-difluorobenzyl)carbamoyl)-3-methoxy-3′-methyl-1′,11′-dioxo-1′,4′,5′,11′-tetrahydro-3′H,4H,7′H-spiro[isoxazole-5,6′-[2,7]methanopyrido[1,2-a][1,4]diazonin]-12′-yl ((S)-2-(phosphonooxy)propyl) carbonate] | 8.84 | 17.6 | 2460 (≈ 3.59 mM)
8 | CC1=NO[C@@]2(CC[C@H](C)N3C[C@H]2n2cc(C(=O)NCc4ccc(F)cc4F)c(=O)c(OC(=O)OC[C@H](C)OP(=O)(O)O)c2C3=O)C1 [Compound 39, (3′S,5S,7′R)-10′-((2,4-difluorobenzyl)carbamoyl)-3,3′-dimethyl-1′,11′-dioxo-1′,4′,5′,11′-tetrahydro-3′H,4H,7′H-spiro[isoxazole-5,6′-[2,7]methanopyrido[1,2-a][1,4]diazonin]-12′-yl ((S)-2-(phosphonooxy)propyl) carbonate] | 8.80 | 16.1 | 2660 (≈ 3.97 mM)
9 | CC1=NO[C@@]2(CC[C@H](C)N3C[C@H]2n2cc(C(=O)NCc4ccc(F)cc4F)c(=O)c(OCOC(=O)CCCOP(=O)(O)O)c2C3=O)C1 [Compound 40, (((3′S,5S,7′R)-10′-((2,4-difluorobenzyl)carbamoyl)-3,3′-dimethyl-1′,11′-dioxo-1′,4′,5′,11′-tetrahydro-3′H,4H,7′H-spiro[isoxazole-5,6′-[2,7]methanopyrido[1,2-a][1,4]diazonin]-12′-yl)oxy)methyl 4-(phosphonooxy)butanoate] | 8.90 | 12.6 | 5340 (≈ 7.83 mM)
10 | CC1=NO[C@@]2(CC[C@H](C)N3C[C@H]2n2cc(C(=O)NCc4ccc(F)cc4F)c(=O)c(OCOC(=O)CC(C)(C)COP(=O)(O)O)c2C3=O)C1 [Compound 41, (((3′S,5S,7′R)-10′-((2,4-difluorobenzyl)carbamoyl)-3,3′-dimethyl-1′,11′-dioxo-1′,4′,5′,11′-tetrahydro-3′H,4H,7′H-spiro[isoxazole-5,6′-[2,7]methanopyrido[1,2-a][1,4]diazonin]-12′-yl)oxy)methyl 3,3-dimethyl-4-(phosphonooxy)butanoate] | 8.51 | 44.3 | 5600 (≈ 7.87 mM)
11 | CC1=NO[C@@]2(CC[C@H](C)N3C[C@H]2n2cc(C(=O)NCc4ccc(F)cc4F)c(=O)c(OCOC(=O)CC(C)(C)CN(CC(=O)O)C(=O)OCOP(=O)(O)O)c2C3=O)C1 [Compound 42, N-(4-((((3′S,5S,7′R)-10′-((2,4-difluorobenzyl)carbamoyl)-3,3′-dimethyl-1′,11′-dioxo-1′,4′,5′,11′-tetrahydro-3′H,4H,7′H-spiro[isoxazole-5,6′-[2,7]methanopyrido[1,2-a][1,4]diazonin]-12′-yl)oxy)methoxy)-2,2-dimethyl-4-oxobutyl)-N-(((phosphonooxy)methoxy)carbonyl)glycine] | 8.97 | 10.3 | 5080 (≈ 6.04 mM)
